Laboratory results reported in patent US20030065039A1, “Biologically active 1,3-bis-aromatic-prop-2-en-1-ones, 1,3-bis-aromatic-propan-1-ones, and 1,3-bis-aromatic-prop-2-yn-1-ones” (Statens Serum Institute, priority 1997, published 2003).
Read-outs that look alike come from different tables or passages of the source.

What was measured:
[1] = target: T1, SDH (J774) (Mus musculus, UniProt Q8K2B3); assay: Effect on J774 cells succinate dehydrogenase; format: biochemical; conditions: incubation at 28° C. for 5 min
T1 construct: endogenous in cells; host or cells: J774 cells, membrane rich fraction

[2] = test system: NDH (J774); assay: Effect on J774 cells NADH dehydrogenase; format: biochemical; conditions: incubation at 28° C. for 5 min
Procedure: FIG. 17. Effect of licochalcone A on J774 cells NADH dehydrogenase. Membrane rich fraction of parasite was incubated with licochalcone A at 28° C. for 5 min, the remaining enzyme activity was measured. Data are mean ±SEM from 4 different experiments.

[3] = target: T2, SDH (human MNC) (Homo sapiens, UniProt P31040); assay: Effect on human MNC succinate dehydrogenase; format: biochemical; conditions: incubation at 28° C. for 5 min
T2 construct: endogenous in cells; host or cells: human blood mononuclear cells (MNC), membrane rich fraction

[4] = test system: TNF-α; assay: Intracellular cytokine staining in stimulated human mononuclear cells; format: cell-based; conditions: 25 μg/ml compound
Procedure: (§1) Therefore, experiments were performed to examine the effect of Licochalcone A and SBC-35ma on secretion of TNF-α from the stimulated cells. These experiments included detection of the cytokines in the cell lysate by ELISA and staining of the intracellular cytokines by using monoclonal antibodies against these cytokines and cytokine receptors.
(§2) Table 3. Effect of Licochalcone A and SBC-35ma on the presence of intracellur cytokines in the human peripheral blood mononuclear cells stimulated either with a malarial exoantigen SPAG (diluted 1:12.5) or bacterial LPS (diluted 1:1000). The cells were preincubated with 25 μg/ml of each of the compounds for 2 hours and then incubated in the presence of antigens at 37° C. overnight. The cells were permeabilized and then fixed in paraformaldehyde Cytokine specific monoclonal antibodies were used for the detection of positive cells for each cytokine. Data are presented as percentages of positive cells for each cytokine.

[5] = test system: IL-1ra; assay: as above; format: cell-based; conditions: 25 μg/ml compound
Procedure: as §1, §2

[6] = test system: IL-4; assay: as above; format: cell-based; conditions: 25 μg/ml compound
Procedure: as §1, §2

[7] = test system: IL-6; assay: as above; format: cell-based; conditions: 25 μg/ml compound
Procedure: as §1, §2

[8] = test system: IL-2; assay: as above; format: cell-based; conditions: 25 μg/ml compound
Procedure: as §1, §2

[9] = test system: IL-1α; assay: as above; format: cell-based; conditions: 25 μg/ml compound, 2 hours preincubation
Procedure: as §1, §2

[10] = test system: IL-1β; assay: as above; format: cell-based; conditions: 25 μg/ml compound
Procedure: as §1, §2

[11] = test system: IFN-γ; assay: IFN-γ producing human mononuclear cells (PMA+inomycin); format: cell-based; conditions: for % IFN-γ producing cells / inhibition at 12.5 µg/mL: 1b Experiment 2, PMA+inomycin, 12.5 μg/ml; for % IFN-γ producing cells: DMSO Control 16.4; for inhibition of IFN-γ production: concentration of 12.5 μg/ml; for inhibition at 12.5 µg/mL: Homo sapiens
Procedure: Mitogens: LPS at a final conc. of 1 μg/ml for TNF-α and PMA+inomycin for IFN-γ.
Incubation condition: Cells and mitogen added at the same time and the compound solution added immediately after in polypropylene tubes and incubated at 37° C. in CO2 incubator overnight. The following day the cells and the supernatant were harvested for TNF-α determination.

[12] = test system: TNF-α; assay: Intracellular TNF-α in human mononuclear cells (flow cytometry); format: cell-based; conditions: for % TNFα- producing cells: DMSO 10.1; for inhibition at 12.5 µg/mL / inhibition at 25 µg/mL / inhibition at 3.125 µg/mL / inhibition at 6.25 µg/mL: Homo sapiens
Procedure: [table] Incubation condition: Cells and mitogen added at the same time and the compound solution added immediately after in polypropylene tubes and incubated at 37° C. in CO2 incubator overnight. The following day the cells and the supernatant were harvested for TNF-α determination. Incubation condition: Cells and mitogen added at the same time and the compound solution added immediately after in polypropylene tubes and incubated at 37° C. in CO2 incubator overnight. The following day the cells and the supernatant were harvested for TNF-α determination.

[13] = 1b Experiment 1, LPS 0.5 μg/ml, compound 12.5 μg/ml, DMSO 13.8
[14] = 1b Experiment 1, LPS 0.5 μg/ml, compound 25.0 μg/ml, DMSO 13.8
[15] = 1b Experiment 2, LPS 1 μg/ml, compound 3.125 μg/ml, DMSO 4.0
[16] = 1b Experiment 2, LPS 1 μg/ml, compound 6.25 μg/ml, DMSO 4.0
[17] = 1b Experiment 2, LPS 1 μg/ml, compound 12.5 μg/ml, DMSO 4.0
[18] = 1b Experiment 3, LPS 1 μg/ml, compound 3.125 μg/ml
[19] = 1b Experiment 3, LPS 1 μg/ml, compound 6.25 μg/ml
[20] = 1b Experiment 3, LPS 1 μg/ml, compound 12.5 μg/ml
[21] = 1b Experiment 4, LPS 1 μg/ml, compound 3.125 μg/ml, DMSO 14.6
[22] = 1b Experiment 4, LPS 1 μg/ml, compound 6.25 μg/ml, DMSO 14.6
[23] = 1b Experiment 4, LPS 1 μg/ml, compound 12.5 μg/ml, DMSO 14.6
[24] = 1b Experiment 1, LPS 0.5 μg/ml, compound 12.5 μg/ml, read-out: % inhibition
[25] = 1b Experiment 1, LPS 0.5 μg/ml, compound 25.0 μg/ml
[26] = 1b Experiment 2, LPS 1 μg/ml, compound 3.125 μg/ml
[27] = 1b Experiment 2, LPS 1 μg/ml, compound 6.25 μg/ml, read-out: Intracellular % inhibition
[28] = 1b Experiment 2, LPS 1 μg/ml, compound 12.5 μg/ml, read-out: Intracellular % inhibition
[29] = 1b Experiment 3, LPS 1 μg/ml, compound 6.25 μg/ml, read-out: Intracellular % inhibition
[30] = 1b Experiment 3, LPS 1 μg/ml, compound 12.5 μg/ml, read-out: Intracellular % inhibition
[31] = 1b Experiment 4, LPS 1 μg/ml, compound 3.125 μg/ml
[32] = 1b Experiment 4, LPS 1 μg/ml, compound 6.25 μg/ml, read-out: Intracellular % inhibition
[33] = 1b Experiment 4, LPS 1 μg/ml, compound 12.5 μg/ml, read-out: Intracellular % inhibition

T2 sequence (P31040 43-664): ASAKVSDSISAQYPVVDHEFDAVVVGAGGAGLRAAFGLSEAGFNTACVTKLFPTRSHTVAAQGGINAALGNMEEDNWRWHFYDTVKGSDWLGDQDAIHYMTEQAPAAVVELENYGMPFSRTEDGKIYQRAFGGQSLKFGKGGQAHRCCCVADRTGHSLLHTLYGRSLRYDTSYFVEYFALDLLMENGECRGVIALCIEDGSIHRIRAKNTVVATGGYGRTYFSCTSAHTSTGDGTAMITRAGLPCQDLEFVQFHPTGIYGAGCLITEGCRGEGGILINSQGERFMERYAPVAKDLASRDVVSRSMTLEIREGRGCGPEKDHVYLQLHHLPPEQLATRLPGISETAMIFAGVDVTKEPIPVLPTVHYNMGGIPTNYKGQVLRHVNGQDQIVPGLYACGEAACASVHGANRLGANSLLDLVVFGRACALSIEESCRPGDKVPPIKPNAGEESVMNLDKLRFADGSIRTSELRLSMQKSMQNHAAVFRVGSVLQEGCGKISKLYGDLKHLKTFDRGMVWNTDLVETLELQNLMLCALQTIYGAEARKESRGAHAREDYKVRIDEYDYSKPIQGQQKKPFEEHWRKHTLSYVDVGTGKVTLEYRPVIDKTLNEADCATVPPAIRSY
T2 sequence (P21912 29-280 partner): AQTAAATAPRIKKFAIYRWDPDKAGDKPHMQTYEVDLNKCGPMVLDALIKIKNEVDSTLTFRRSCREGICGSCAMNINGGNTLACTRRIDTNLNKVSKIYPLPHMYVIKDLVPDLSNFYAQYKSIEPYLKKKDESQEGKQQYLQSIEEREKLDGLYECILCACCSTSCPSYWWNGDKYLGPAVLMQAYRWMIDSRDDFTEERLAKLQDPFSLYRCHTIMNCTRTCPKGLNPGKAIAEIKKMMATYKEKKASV
T2 sequence (Q99643 30-169 partner): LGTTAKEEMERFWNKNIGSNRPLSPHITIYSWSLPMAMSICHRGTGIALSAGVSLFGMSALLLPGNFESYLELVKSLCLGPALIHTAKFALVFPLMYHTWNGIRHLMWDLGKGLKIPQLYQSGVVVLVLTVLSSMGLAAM
T2 sequence (O14521 57-159 partner): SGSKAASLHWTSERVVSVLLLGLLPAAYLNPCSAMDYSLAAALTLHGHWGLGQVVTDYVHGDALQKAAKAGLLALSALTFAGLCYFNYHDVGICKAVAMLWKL
T1 sequence (Q8K2B3 43-664): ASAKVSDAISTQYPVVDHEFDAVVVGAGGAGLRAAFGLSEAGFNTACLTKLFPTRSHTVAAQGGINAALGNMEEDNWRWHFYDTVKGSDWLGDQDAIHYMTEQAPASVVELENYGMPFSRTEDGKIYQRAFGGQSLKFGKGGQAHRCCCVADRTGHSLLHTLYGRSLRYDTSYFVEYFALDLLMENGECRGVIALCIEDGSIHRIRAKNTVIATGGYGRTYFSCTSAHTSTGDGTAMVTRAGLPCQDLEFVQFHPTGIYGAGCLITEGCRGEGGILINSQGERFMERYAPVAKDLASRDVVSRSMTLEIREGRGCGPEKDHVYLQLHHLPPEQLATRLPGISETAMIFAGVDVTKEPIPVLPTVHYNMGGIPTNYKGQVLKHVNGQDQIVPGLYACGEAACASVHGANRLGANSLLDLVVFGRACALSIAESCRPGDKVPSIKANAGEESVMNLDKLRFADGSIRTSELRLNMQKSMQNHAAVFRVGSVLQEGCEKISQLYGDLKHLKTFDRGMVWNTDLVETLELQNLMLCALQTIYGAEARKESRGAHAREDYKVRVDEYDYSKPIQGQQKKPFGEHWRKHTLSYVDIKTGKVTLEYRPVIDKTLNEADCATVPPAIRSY
T1 sequence (Q9CQA3 31-282 partner): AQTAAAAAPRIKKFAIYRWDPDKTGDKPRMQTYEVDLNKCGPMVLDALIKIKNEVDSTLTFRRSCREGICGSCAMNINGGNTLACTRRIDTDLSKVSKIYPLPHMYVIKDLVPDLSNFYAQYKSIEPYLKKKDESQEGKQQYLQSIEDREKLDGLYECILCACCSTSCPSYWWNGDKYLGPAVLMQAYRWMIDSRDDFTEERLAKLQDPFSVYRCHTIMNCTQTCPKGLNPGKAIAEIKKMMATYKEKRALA
T1 sequence (Q9CZB0 30-169 partner): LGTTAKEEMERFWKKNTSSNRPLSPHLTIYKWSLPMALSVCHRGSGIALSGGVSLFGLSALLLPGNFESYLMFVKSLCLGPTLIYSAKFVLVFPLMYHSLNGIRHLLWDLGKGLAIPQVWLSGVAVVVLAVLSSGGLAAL
T1 sequence (Q9CXV1 57-159 partner): as the sequence (O14521 57-159 partner) above, with L24I, A27G, A34V, M35V, G47S, A63T, Q65P, K69R, K95R counted along it

C=CC(C)(C)c1cc(/C=C/C(=O)c2ccc(O)cc2)c(OC)cc1O [Licochalcone A]
IC50 [1]: 1122.2 μg/mg protein
IC50 [2]: 547.7 μg/mg protein
IC50 [3]: 799.7 μg/mg protein
percentages of positive cells for TNF-α ([4]; LPS 1:1000, LPS alone 0.30): 0.70%
percentages of positive cells for TNF-α ([4]; SPAG 1:12.5, SPAG alone 0.96): 1.0%
percentages of positive cells for IL-1ra ([5]; LPS 1:1000, LPS alone 5.1): 7.6%
percentages of positive cells for IL-1ra ([5]; SPAG 1:12.5, SPAG alone 6.6): 2.9%
percentages of positive cells for IL-4 ([6]; LPS 1:1000, LPS alone 0): 0%
percentages of positive cells for IL-4 ([6]; SPAG 1:12.5, SPAG alone 0): 0.69%
percentages of positive cells for IL-6 ([7]; LPS 1:1000, LPS alone 4.3): 6.7%
percentages of positive cells for IL-6 ([7]; SPAG 1:12.5, SPAG alone 5.6): 6.2%
percentages of positive cells for IL-2 ([8]; LPS 1:1000, LPS alone 2.0): 3.6%
percentages of positive cells for IL-2 ([8]; SPAG 1:12.5, SPAG alone 3.1): 5.2%
percentages of positive cells for IL-1α ([9]; LPS 1:1000, LPS alone 13): 15%
percentages of positive cells for IL-1α ([9]; SPAG 1:12.5, SPAG alone 11): 9.1%
percentages of positive cells for IL-1β ([10]; LPS 1:1000, LPS alone 9.1): 12%
percentages of positive cells for IL-1β ([10]; SPAG 1:12.5, SPAG alone 13): 13%

COc1cc(/C=C/C(=O)c2ccc(C3CCCCC3)cc2)cc(OC)c1 [PH104, 3,5-dimethoxy-4′-cyclohexylchalcone]
melting point: 75.5 to 76.2 °C
% IFN-γ producing cells [11]: 17.0%
inhibition of IFN-γ production ([11]; 1b Experiment 3): no inhibition
inhibition of IFN-γ production ([11]; 1b Experiment 4): no inhibition
inhibition at 12.5 µg/mL [11]: 0%
% TNF-α producing cells [12, 13]: 2.4%
% TNF-α producing cells [12, 14]: 1.4%
% TNF-α producing cells [12, 15]: 2.4%
% TNF-α producing cells [12, 16]: 1.0%
% TNF-α producing cells [12, 17]: 1.7%
% TNFα- producing cells [12, 18]: 2.9%
% TNFα- producing cells [12, 19]: 1.1%
% TNFα- producing cells [12, 20]: 1.2%
% TNF-α producing cells [12, 21]: 3.0%
% TNF-α producing cells [12, 22]: 0.8%
% TNF-α producing cells [12, 23]: 1.0%
inhibition at 12.5 µg/mL [12, 24]: 83%
inhibition at 25 µg/mL [12, 25]: 90%
inhibition at 3.125 µg/mL [12, 26]: 40%
inhibition at 6.25 µg/mL [12, 27]: 75%
inhibition at 12.5 µg/mL [12, 28]: 58%
inhibition at 3.125 µg/mL [12, 18]: 71%
inhibition at 6.25 µg/mL [12, 29]: 89%
inhibition at 12.5 µg/mL [12, 30]: 88%
inhibition at 3.125 µg/mL [12, 31]: 79%
inhibition at 6.25 µg/mL [12, 32]: 95%
inhibition at 12.5 µg/mL [12, 33]: 93%

COc1cc(/C=C/C(=O)c2ccccc2F)cc(OC)c1 [PH135, 2′-fluoro-3,5-dimethoxychalcone]
% IFN-γ producing cells [11]: 14.2%
inhibition of IFN-γ production ([11]; 1b Experiment 3): no inhibition
inhibition of IFN-γ production ([11]; 1b Experiment 4): no inhibition
inhibition at 12.5 µg/mL [11]: 14%
% TNF-α producing cells ([12]; 1b Experiment 1, LPS 0.5 μg/ml, compound 6.25 μg/ml, DMSO 13.8): 4.1%
% TNF-α producing cells [12, 13]: 2.3%
% TNF-α producing cells [12, 14]: 2.2%
% TNF-α producing cells [12, 15]: 4.3%
% TNF-α producing cells [12, 16]: 1.7%
% TNF-α producing cells [12, 17]: 2.0%
% TNFα- producing cells [12, 18]: 1.7%
% TNFα- producing cells [12, 19]: 1.2%
% TNFα- producing cells [12, 20]: 1.0%
% TNF-α producing cells [12, 21]: 3.5%
% TNF-α producing cells [12, 22]: 2.1%
% TNF-α producing cells [12, 23]: 1.8%
inhibition at 6.25 µg/mL ([12]; 1b Experiment 1, LPS 0.5 μg/ml, compound 6.25 μg/ml, read-out: % inhibition): 70%
inhibition at 12.5 µg/mL [12, 24]: 83%
inhibition at 25 µg/mL [12, 25]: 84%
inhibition at 3.125 µg/mL [12, 26]: 0%
inhibition at 6.25 µg/mL [12, 27]: 58%
inhibition at 12.5 µg/mL [12, 28]: 50%
inhibition at 3.125 µg/mL [12, 18]: 83%
inhibition at 6.25 µg/mL [12, 29]: 88%
inhibition at 12.5 µg/mL [12, 30]: 90%
inhibition at 3.125 µg/mL [12, 31]: 76%
inhibition at 6.25 µg/mL [12, 32]: 86%
inhibition at 12.5 µg/mL [12, 33]: 88%

C=CCOc1ccc(C(=O)/C=C/c2cc(OC)cc(OC)c2)cc1 [SBC-35ma, 3,5-dimethoxy-4′-allyloxychalcone]
percentages of positive cells for TNF-α ([4]; LPS 1:1000, LPS alone 0.30): 0%
percentages of positive cells for TNF-α ([4]; SPAG 1:12.5, SPAG alone 0.96): 0%
percentages of positive cells for IL-1ra ([5]; LPS 1:1000, LPS alone 5.1): 0.78%
percentages of positive cells for IL-1ra ([5]; SPAG 1:12.5, SPAG alone 6.6): 0.14%
percentages of positive cells for IL-4 ([6]; LPS 1:1000, LPS alone 0): 0%
percentages of positive cells for IL-4 ([6]; SPAG 1:12.5, SPAG alone 0): 0%
percentages of positive cells for IL-6 ([7]; LPS 1:1000, LPS alone 4.3): 0%
percentages of positive cells for IL-6 ([7]; SPAG 1:12.5, SPAG alone 5.6): 0%
percentages of positive cells for IL-2 ([8]; LPS 1:1000, LPS alone 2.0): 0%
percentages of positive cells for IL-2 ([8]; SPAG 1:12.5, SPAG alone 3.1): 0%
percentages of positive cells for IL-1α ([9]; LPS 1:1000, LPS alone 13): 0%
percentages of positive cells for IL-1α ([9]; SPAG 1:12.5, SPAG alone 11): 0%
percentages of positive cells for IL-1β ([10]; LPS 1:1000, LPS alone 9.1): 0%
percentages of positive cells for IL-1β ([10]; SPAG 1:12.5, SPAG alone 13): 0%
